Assay results: BindingDB's records for doi:10.1016/s0960-894x(99)00425-4 (Merck Research Laboratorie, 1999)
pIC50: −log10 of the molar value.

Target: Beta-lactamase CcrA (Bacteroides fragilis)
Test: Inhibitory activity against CCRA (Bacteroides fragilis) metallo-beta-lactamase

C=CCOC(=O)N[C@H](C)C(=O)S[C@H](Cc1ccc2oc3ccccc3c2c1)C(=O)O [(R)-2-((R)-2-Allyloxycarbonylamino-propionylsulfanyl)-3-dibenzofuran-2-yl-propionic acid]
pIC50: < 2.82

CC(=O)S[C@H](Cc1ccccc1)C(=O)O [(R)-2-Acetylsulfanyl-3-phenyl-propionic acid]
pIC50: < 3.00

C[C@@H](NC(=O)c1ccccc1)C(=O)SCC(=O)O [(R)-2-(2-benzamidopropanoylthio)acetic acid]
pIC50: < 3.00

O=C(O)[C@H](S)Cc1ccc2oc3ccccc3c2c1 [(R)-3-Dibenzofuran-2-yl-2-mercapto-propionic acid]
pIC50: 5.00

C[C@@H](NC(=O)Cc1ccccc1)C(=O)S[C@H](Cc1ccc(-c2ccccc2)cc1)C(=O)O [(R)-3-Biphenyl-4-yl-2-((R)-2-phenylacetylamino-propionylsulfanyl)-propionic acid]
pIC50: < 2.82

C[C@@H](NC(=O)Cc1cccc2ccccc12)C(=O)S[C@H](Cc1ccc(-c2ccccc2)cc1)C(=O)O [(R)-3-Biphenyl-4-yl-2-[(R)-2-(2-naphthalen-1-yl-acetylamino)-propionylsulfanyl]-propionic acid]
pIC50: < 2.82

C[C@@H](NC(=O)c1ccccc1)C(=O)S[C@H](Cc1ccc2oc3ccccc3c2c1)C(=O)O [(R)-2-((R)-2-Benzoylamino-propionylsulfanyl)-3-dibenzofuran-2-yl-propionic acid]
pIC50: 3.17

CC(=O)N[C@H](C)C(=O)S[C@H](Cc1ccc(-c2ccccc2)cc1)C(=O)O [(R)-2-((R)-2-Acetylamino-propionylsulfanyl)-3-biphenyl-4-yl-propionic acid]
pIC50: 3.00

O=C(O)[C@H](S)Cc1ccc(-c2ccccc2)cc1 [(R)-3-Biphenyl-4-yl-2-mercapto-propionic acid]
pIC50: 3.12

CC(=O)S[C@H](Cc1ccc2oc3ccccc3c2c1)C(=O)O [(R)-2-Acetylsulfanyl-3-dibenzofuran-2-yl-propionic acid]
pIC50: < 3.30

CC(C)C(=O)N[C@H](C)C(=O)S[C@H](Cc1ccc(-c2ccccc2)cc1)C(=O)O [(R)-3-Biphenyl-4-yl-2-((R)-2-isobutyrylamino-propionylsulfanyl)-propionic acid]
pIC50: < 2.82

CC(=O)N[C@H](C)C(=O)S[C@H](Cc1ccccc1)C(=O)O [(R)-2-((R)-2-Acetylamino-propionylsulfanyl)-3-phenyl-propionic acid]
pIC50: < 3.00

CC(=O)S[C@H](Cc1ccc(-c2ccccc2)cc1)C(=O)O [(R)-2-Acetylsulfanyl-3-biphenyl-4-yl-propionic acid]
pIC50: 3.12

CCC(=O)N[C@H](C)C(=O)S[C@H](Cc1ccc(-c2ccccc2)cc1)C(=O)O [(R)-3-Biphenyl-4-yl-2-((R)-2-propionylamino-propionylsulfanyl)-propionic acid]
pIC50: < 2.82

O=C(S[C@H](Cc1ccccc1)C(=O)O)c1ccccc1 [(R)-2-Benzoylsulfanyl-3-phenyl-propionic acid]
pIC50: < 3.00

C[C@@H](NC(=O)c1ccccc1)C(=O)S[C@H](Cc1ccc(-c2ccccc2)cc1)C(=O)O [(R)-2-((R)-2-Benzoylamino-propionylsulfanyl)-3-biphenyl-4-yl-propionic acid]
pIC50: 3.00

C[C@@H](NC(=O)COc1ccccc1)C(=O)S[C@H](Cc1ccc(-c2ccccc2)cc1)C(=O)O [(R)-3-Biphenyl-4-yl-2-[(R)-2-(2-phenoxy-acetylamino)-propionylsulfanyl]-propionic acid]
pIC50: 3.03

C[C@@H](NC(=O)CCC(=O)O)C(=O)S[C@H](Cc1ccc(-c2ccccc2)cc1)C(=O)O [N-[(R)-1-((R)-2-Biphenyl-4-yl-1-carboxy-ethylsulfanylcarbonyl)-ethyl]-succinamic acid]
pIC50: < 2.82
